Assay results: patent US20260335323A1, “CHIMERIC MOLECULE” (UCL Business Ltd, priority 2023, published 2026)

Columns and labels:
LC3 = test: ATP5a/LC3 co-localisation immunofluorescence in MEF WT; format: cell-based, mouse
Method: FIG. 6. ULKTACs rely on ULK1 for the redirection of autophagy components to mitochondria and subsequent mitophagic degradation (A) Western blot of mouse embryonic fibroblasts (MEF) WT and MEF ULK1/2^−/− treated with 1 mM ULKTACs, 5 mM CCCP or both and probed for ULK1, Mfn2 and Actin—quantification of the relative intensity of Mfn2 shown in (B), normalised to Actin. Representative immunofluorescence of MEF WT (C) and MEF ULK1/2^−/− (D) treated with 5 mM CCCP, 1 mM ULKTACs or both and immunostained for Alexa 488 ATP5a and Alexa 647 LC3B. Quantification of the colocalised LC3 to ATP5a spot area shown in WT vs ULK1/2^−/− treated MEF cells shown in (E). Data shown are mean±SEM, n=3, *p<0.05, ** p<0.01, *** p<0.001, Two-way ANOVA with Tukey's multiple comparisons test.
For TOM20/ULK1 immunofluorescence, cells were seeded in a 384 well PerkinElmer CellCarrier Ultra plate 24 hours prior to treatment with compounds. Cells were treated for 18 hours after which they were fixed with 4% paraformaldehyde (PFA) in phosphate buffered saline (PBS) and blocked with 10% FBS and 0.1% Triton in PBS. Plates were incubated at 4° C. overnight, with 1:400 mouse anti-TOM20 (Santa Cruz, #sc-17764) and 1:400 rabbit anti-ULK1 (Cell Signalling Technologies, #0854). […]

ULK1 = molecular target: T1, ULK1 (Homo sapiens, UniProt O75385); test: in vitro kinase assay measuring ATP consumption; format: biochemical; details: versus BL-918
T1 sequence (O75385 1-1050): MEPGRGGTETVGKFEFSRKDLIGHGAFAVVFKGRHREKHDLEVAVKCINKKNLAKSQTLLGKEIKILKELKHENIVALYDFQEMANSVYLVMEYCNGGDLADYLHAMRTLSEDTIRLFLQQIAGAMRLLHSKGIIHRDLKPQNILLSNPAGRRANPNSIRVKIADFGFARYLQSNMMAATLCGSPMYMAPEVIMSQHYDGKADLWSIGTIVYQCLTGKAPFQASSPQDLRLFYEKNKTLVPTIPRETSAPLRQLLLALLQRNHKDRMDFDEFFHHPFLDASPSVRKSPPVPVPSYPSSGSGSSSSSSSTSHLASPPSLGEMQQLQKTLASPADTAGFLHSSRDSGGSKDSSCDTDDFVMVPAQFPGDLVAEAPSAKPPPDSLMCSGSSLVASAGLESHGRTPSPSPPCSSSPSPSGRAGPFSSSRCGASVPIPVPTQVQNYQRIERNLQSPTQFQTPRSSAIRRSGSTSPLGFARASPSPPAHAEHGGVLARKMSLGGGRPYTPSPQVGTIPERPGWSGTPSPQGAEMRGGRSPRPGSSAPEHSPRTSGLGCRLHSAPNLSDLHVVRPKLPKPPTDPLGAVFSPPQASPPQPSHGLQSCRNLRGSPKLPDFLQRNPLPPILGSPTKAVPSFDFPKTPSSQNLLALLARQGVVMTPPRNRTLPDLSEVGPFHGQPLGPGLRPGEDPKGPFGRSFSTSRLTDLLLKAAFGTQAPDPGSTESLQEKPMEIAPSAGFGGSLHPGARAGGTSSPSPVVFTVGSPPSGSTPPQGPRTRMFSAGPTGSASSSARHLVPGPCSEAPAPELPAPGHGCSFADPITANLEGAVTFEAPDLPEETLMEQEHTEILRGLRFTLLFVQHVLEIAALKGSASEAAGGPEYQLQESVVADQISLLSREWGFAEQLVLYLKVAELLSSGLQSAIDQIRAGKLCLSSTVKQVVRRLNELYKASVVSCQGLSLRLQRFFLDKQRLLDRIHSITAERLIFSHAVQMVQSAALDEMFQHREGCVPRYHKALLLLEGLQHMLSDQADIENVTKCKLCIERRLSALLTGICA
From the text: Next, we designed a chimeric compound composed of a BL-918 derivative (referred to as NZ-60 herein) as our autophagy activator linked to the TSPO ligand as our targeting warhead to the outer mitochondrial membrane, utilising Huisgen-Sharpless click chemistry for the key linkage step^38-41. We designed a chemical synthesis route in 9 steps to produce two ULKTACs, NZ-65 and NZ-66. NZ-65 employs a polyethylene glycol (PEG) linker while NZ-66 uses a six carbon hexane linker (FIG. 3A). The resulting molecules were >99% pure as verified by LCMS. […] Importantly, key interactions shown to be necessary for the activation of ULK1 in its kinase domain, namely, Arg18, Lys50, Asn86 and Tyr89^8, appear to be maintained.

activation of ULK1 vs BL-918 (ULK1)	SMILES	co-localisation of ATP5a with LC3 (LC3)
comparable activity	O=C(Nc1cc(C(F)(F)F)cc(C(F)(F)F)c1)N[C@@H](C(=O)Nc1ccc(F)cc1F)c1ccc(OCc2cn(CCCCCCNC(=O)C(=O)c3c(-c4ccccc4)[nH]c4ccccc34)nn2)cc1 [NZ-66, (R)-2-(3-(3,5-bis(trifluoromethyl)phenyl)ureido)-N-(2,4-difluorophenyl)-2-(4-((1-(6-(2-oxo-2-(2-phenyl-1H-indol-3-yl)acetamido)hexyl)-1H-1,2,3-triazol-4-yl)methoxy)phenyl) acetamide]	increase in co-localisation
comparable activity	O=C(Nc1cc(C(F)(F)F)cc(C(F)(F)F)c1)N[C@@H](C(=O)Nc1ccc(F)cc1F)c1ccc(OCc2cn(CCOCCOCCNC(=O)C(=O)c3c(-c4ccccc4)[nH]c4ccccc34)nn2)cc1 [NZ-65, (R)-2-(3-(3,5-bis(trifluoromethyl)phenyl)ureido)-N-(2,4-difluorophenyl)-2-(4-((1-(2-(2-(2-(2-oxo-2-(2-phenyl-1H-indol-3-yl)acetamido)ethoxy)ethoxy)ethyl)-1H-1,2,3-triazol-4-yl)methoxy)phenyl) acetamide]	increase in co-localisation
